Patent US6906205B2, “Spiro and dispiro 1,2,4-trioxolane antimalarials” (Medicines for Malaria Venture MMV, priority 2002, dated 2005)
In brackets after ≈: the same amount, converted by molar mass.

What was measured:
[1] = tested on: P. falciparum K1 strain (Thailand resistant to chloroquine); experiment: semiautomated microdilution assay, [3H]-hypoxanthine incorporation, K1 strain; format: cell-based, Plasmodium falciparum; conditions: K1 strain, 72 h incubation
In short: (§1)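 Compounds were tested against intraerythrocytic parasites taken from asynchronous stock cultures, using semiautomated microdilution. IC50 values were estimated by logit regression analysis.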

[2] = tested on: P. falciparum NF54 strain (sensitive to standard antimalarials); experiment: semiautomated microdilution assay, [3H]-hypoxanthine incorporation, NF54 strain; format: cell-based, Plasmodium falciparum; conditions: NF54 strain, 72 h incubation
In short: as §1

[3] = tested on: ANKA strain of P. berghei; experiment: single dose STI in vivo screen in infected mice; set-up: species or system Plasmodium berghei; conditions: for Activity (%) po / Activity (%) sc / Activity (%) SSVpo: percent reduction in parasitemia day 3 post-infection, mice; for Activity (%) po / Survival (days) po: single 10 mg/kg po in 3% ethanol and 7% Tween 80; for Activity (%) sc / Survival (days) sc: single 10 mg/kg sc in 3% ethanol and 7% Tween 80; for Activity (%) SSVpo: single po dose in standard suspending vehicle (SSV); for Survival (days) po / Survival (days) sc / Survival (days) SSVpo: untreated control 5.6 ± 0.3; for Survival (days) SSVpo: single po dose in SSV
In short: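 Groups of 3-5 Moro SPF or NMRI mice infected with the ANKA strain of P. berghei received a single dose of trioxolane on day one post-infection. The compound was given in 3% ethanol and 7% Tween 80 or in SSV (0.5% w/v CMC, 0.5% v/v benzyl alcohol, 0.4% v/v Tween 80, 0.9% w/v sodium chloride in water). Antimalarial activity was scored as percent reduction in parasitemia on day three and as survival time versus untreated controls. Survival to day 30 counted as cure.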

[4] = tested on: Schistosoma mansoni 21-day-old schistosomules; experiment: effect on 21-day-old schistosomules in mice; format: in vivo; conditions: single 200 mg/kg per os, female mice
Protocol: All groups were killed 4 weeks after treatment and the liver and intestine were removed and separated. The liver and intestine were compressed and alive male and female worms could be seen and counted. The effect of the compounds was evaluated by mean total and female worm burden.

[5] = tested on: Schistosoma mansoni adult schistosomes (49-day-old); experiment: effect on adult schistosomes (49-day-old) in mice; format: in vivo; conditions: for % reduction of adult worms growth at day 49 after per os application of 400 mg/kg, TWR (%) / adult worms at day 49, per os 400 mg/kg, DEAD WORM (%): single 400 mg/kg per os
Protocol: Mice were infected with 100 Schistosoma mansoni cercariae […]. Each group was treated per os with OZ compounds at single doses of 200, 400, and 600 mg/kg. […] All groups were killed 4 weeks after treatment and the liver and intestine were removed and separated. The liver and intestine were compressed and alive male and female worms could be seen and counted.

[6] = tested on: P. berghei ANKA strain; experiment: prophylactic activity, single 100 mg/kg po dose before infection; format: in vivo, Plasmodium berghei; conditions: single 100 mg/kg po before infection
Protocol: (§2) Moro NMRI male mice (Fü Albino specific pathogen free) weighing 18±2 g were infected intravenously (i.v.) with 2×10^7 P. berghei ANKA strain-infected erythrocytes from donor mice on day 0 of the experiment. From donor mice with circa 30% parasitemia, heparinized blood was taken and diluted in physiological saline to 10^8 parasitized erythrocytes per ml. An aliquot (0.2 ml) of this suspension was injected i.v. into experimental and control groups of mice. In untreated control mice, parasitemia rose regularly to 40 to 50% by day 3 post-infection and 70 to 80% by day 4 post-infection. The mice died between days 5 and 7 post-infection. Throughout the experiments, mice were kept in groups of three or five animals in Makrolon type II cages in an air-conditioned animal room at 22 to 23° C. A diet with p-aminobenzoic acid (PABA) of 45 mg (NAFAG FUTTER© food N^o 9009 PAB-45) per kg of body weight, and tap water is available ad libitum.
(§3) OZ compounds were prepared at an appropriate concentration, either as a solution or a suspension containing SSV (0.5% w/v CMC, 0.5% v/v benzyl alcohol, 0.4% v/v Tween 80, and 0.9% w/v sodium chloride in water). They were administered per os (p.o.) in a total volume of 0.01 ml per gram of mouse. The activity of the compound was determined by a variety of methods outlined in subsequent sections. Survival time was also recorded, and survival to day 30 post-infection was considered to be a cure.
Prophylactic activities of the compounds were compared after administering po single dose of 100 mg/kg to different groups of five animals at various times before infection. All groups including an untreated control group, were then infected at the same time. Parasitemia was determined for each animal on day 3 post-infection, and percent of reduction of the level of parasitemia compared to levels for animals given no drug is determined.

[7] = tested on: ANKA strain of Plasmodium berghei; experiment: single dose ED50/ED90/ED99 determinations in infected mice; format: in vivo; conditions: single dose po in SSV, mice, percent reduction in parasitemia on day three post-infection
Protocol: In the single dose ED50/ED90/ED99 determinations, Moro SPF or NMRI mice (group of three) infected with the ANKA strain of Plasmodium berghei were treated on day one post-infection. […] The SSV consists of 0.5% w/v CMC, 0.5% v/v benzyl alcohol, 0.4% v/v Tween 80, and 0.9% w/v sodium chloride in water. Antimalarial activity was measured by percent reduction in parasitemia on day three post-infection. The ED50/ED90 values were calculated by nonlinear fitting.

[8] = tested on: P. berghei ANKA strain; experiment: treatment: 3x3 mg/kg and 3x1 mg/kg po divided doses in infected mice; format: in vivo, Plasmodium berghei; conditions: 3×1 mg/kg po on days 1, 2, 3 post-infection, SSV
Protocol: as §2, §3
The second experiment consists of administration of divided 3×3 mg/kg and 3×1 mg/kg po doses administered on days 1, 2, and 3 post-infection. On day 4 post-infection, blood smears of all animals were prepared and stained with Giemsa. Parasitemia was determined microscopically, and the difference between the mean value of the control group (taken as 100%) and those of the experimental groups was calculated and expressed as percent reduction. Compounds were administered orally in the SSV vehicle.

SMILES	IC50 (ng/ml) K1 [1]	IC50 (ng/ml) NF54 [2]	% reduction of schistosomule growth at day 21 after per os application of 200 mg/kg, FWR (%) [4] [%]	% reduction of schistosomule growth at day 21 after per os application of 200 mg/kg, TWR (%) [4] [%]	% reduction of adult worms growth at day 49 after per os application of 400 mg/kg, TWR (%) [5] [%]	adult worms at day 49, per os 400 mg/kg, DEAD WORM (%) [5] [%]	Activity (%) po [3] [%]	Activity (%) sc [3] [%]	Activity (%) SSVpo [3] [%]	Survival (days) po [3] [days]	Survival (days) sc [3] [days]	Survival (days) SSVpo [3] [days]	ED90 [7] [mg/kg]	ED99 [7] [mg/kg]	ED50 [7] [mg/kg]	also measured
NCC(=O)NC[C@H]1CC[C@]2(CC1)OO[C@]1(O2)C2CC3CC(C2)CC1C3 [OZ271]	0.36 ng/mL (≈ 1.03 nM)	0.29 ng/mL (≈ 0.827 nM)	86	88	0	6	–	–	–	–	–	–	–	–	–	Survival (days) 10 mg/kg SSV po ([3]; single 10 mg/kg po in SSV): 8.7 days; duration of prophylactic protection [6]: 3 days
CC1(C)COC2(CCC3(CC2)OOC2(O3)C3CC4CC(C3)CC2C4)OC1 (centres unmarked) [OZ11]	–	–	84	85	16	4	99.99	100	98	11.4	18	7.4	6.2	8.2	–	–
c1cn(C[C@H]2CC[C@]3(CC2)OOC2(O3)C3CC4CC(C3)CC2C4)cn1 (some centres unmarked) [OZ179]	1.3 ng/mL (≈ 3.77 nM)	1.1 ng/mL (≈ 3.19 nM)	–	–	–	–	–	–	99.78	–	–	10.3	3.3	6.6	1.4	Activity (%) po ([3]; 10 mg/kg): 99.91%; Activity (%) sc ([3]; 10 mg/kg): 99.91%; Survival (days) po ([3]; 10 mg/kg): 11.3 days; Survival (days) sc ([3]; 10 mg/kg): 11.3 days
O=C(NO)[C@H]1CC[C@@]2(CC1)OOC1(O2)C2CC3CC(C2)CC1C3 (some centres unmarked) [OZ127]	0.61 ng/mL (≈ 1.89 nM)	1.3 ng/mL (≈ 4.02 nM)	–	–	–	–	95	97	98	7.0	7.7	7.7	7.6	19	2.5	–
COCC(=O)N1CCC2(CC1)OOC1(O2)C2CC3CC(C2)CC1C3 (centres unmarked) [OZ113]	0.95 ng/mL (≈ 2.82 nM)	0.20 ng/mL (≈ 0.593 nM)	–	–	–	–	92	89	96	7.3	7.3	8.0	9.0	19	3.6	–
c1ccc(C[C@H]2CC[C@]3(CC2)OOC2(O3)C3CC4CC(C3)CC2C4)cc1 (some centres unmarked) [OZ156]	2.1/2.1 ng/ml	2.1/2.1 ng/ml	72	75	0	6	99.98	99.98	98.8	17.0	19.7	10.3	2.6	4.7	1.3	–
O=C(O)CC1CCC2(CC1)OOC1(O2)C2CC3CC(C2)CC1C3 (centres unmarked) [OZ78]	24 ng/mL (≈ 74.4 nM)	42 ng/mL (≈ 130 nM)	87	82	0	17	94	79	97	8.7	6.7	7.0	9.1	17	–	% reduction of adult worms growth at day 49 after per os application of 200 mg/kg, TWR (%) ([5]; single 200 mg/kg per os): 24%; adult worms at day 49, per os 200 mg/kg, DEAD WORM (%) ([5]; single 200 mg/kg per os): 29%; % reduction of adult worms growth at day 49 after per os application of 600 mg/kg, TWR (%) ([5]; single 600 mg/kg per os): 0%; adult worms at day 49, per os 600 mg/kg, DEAD WORM (%) ([5]; single 600 mg/kg per os): 14%
c1ncn(C[C@H]2CC[C@]3(CC2)OOC2(O3)C3CC4CC(C3)CC2C4)n1 (some centres unmarked) [OZ177]	–	–	–	–	–	–	–	–	–	–	–	12.7	3.7	5.8	–	IC50 ([1]; Plasmodium falciparum, read-out: IC50 (ng/ml) K1): 0.9 ng/mL (≈ 2.61 nM); IC50 ([2]; Plasmodium falciparum, read-out: IC50 (ng/ml) NF54): 1.7 ng/mL (≈ 4.92 nM)
NC[C@H]1CC[C@]2(CC1)OOC1(O2)C2CC3CC(C2)CC1C3 (some centres unmarked) [OZ209]	–	–	–	85	–	–	–	–	–	–	–	10.0	1.4	3.0	–	activity (percent reduction of parasitemia) [8]: greater than 99%
CC(C)(O)C[C@H]1CC[C@]2(CC1)OOC1(O2)C2CC3CC(C2)CC1C3 (some centres unmarked) [OZ205]	1.5 ng/mL (≈ 4.46 nM)	2.0 ng/mL (≈ 5.94 nM)	83	84	0	12	99.96	99.96	99.94	10.0	9.7	8.7	3.3	6.0	1.6	–
c1cn(CC[C@H]2CC[C@]3(CC2)OOC2(O3)C3CC4CC(C3)CC2C4)cn1 (some centres unmarked) [OZ219]	0.85 ng/mL (≈ 2.37 nM)	1.6 ng/mL (≈ 4.46 nM)	–	–	–	–	99.89	99.91	99.82	8.7	9.3	8.0	3.0	5.2	1.6	–
